Source: patent publication US20080125424A1, “Derivatives of urea and related diamines, methods for their manufacture, and uses therefor” (priority 2006, published 2008)
Blank lines part the entries; values can stand above or below the compound they belong to.

How the values were obtained:
Human Ca2+ receptor = molecular target: T1, Human Ca2+ receptor (Homo sapiens, UniProt P41180); experiment: Luciferase reporter assay in CHO cells (ET8-5-5) transfected with human Ca2+ receptor; assay type: cell-based; settings: CHO ET8-5-5 cells, 5 h incubation with test compound
T1 construct: expressed in transfected cells
T1 sequence (P41180 20-1078): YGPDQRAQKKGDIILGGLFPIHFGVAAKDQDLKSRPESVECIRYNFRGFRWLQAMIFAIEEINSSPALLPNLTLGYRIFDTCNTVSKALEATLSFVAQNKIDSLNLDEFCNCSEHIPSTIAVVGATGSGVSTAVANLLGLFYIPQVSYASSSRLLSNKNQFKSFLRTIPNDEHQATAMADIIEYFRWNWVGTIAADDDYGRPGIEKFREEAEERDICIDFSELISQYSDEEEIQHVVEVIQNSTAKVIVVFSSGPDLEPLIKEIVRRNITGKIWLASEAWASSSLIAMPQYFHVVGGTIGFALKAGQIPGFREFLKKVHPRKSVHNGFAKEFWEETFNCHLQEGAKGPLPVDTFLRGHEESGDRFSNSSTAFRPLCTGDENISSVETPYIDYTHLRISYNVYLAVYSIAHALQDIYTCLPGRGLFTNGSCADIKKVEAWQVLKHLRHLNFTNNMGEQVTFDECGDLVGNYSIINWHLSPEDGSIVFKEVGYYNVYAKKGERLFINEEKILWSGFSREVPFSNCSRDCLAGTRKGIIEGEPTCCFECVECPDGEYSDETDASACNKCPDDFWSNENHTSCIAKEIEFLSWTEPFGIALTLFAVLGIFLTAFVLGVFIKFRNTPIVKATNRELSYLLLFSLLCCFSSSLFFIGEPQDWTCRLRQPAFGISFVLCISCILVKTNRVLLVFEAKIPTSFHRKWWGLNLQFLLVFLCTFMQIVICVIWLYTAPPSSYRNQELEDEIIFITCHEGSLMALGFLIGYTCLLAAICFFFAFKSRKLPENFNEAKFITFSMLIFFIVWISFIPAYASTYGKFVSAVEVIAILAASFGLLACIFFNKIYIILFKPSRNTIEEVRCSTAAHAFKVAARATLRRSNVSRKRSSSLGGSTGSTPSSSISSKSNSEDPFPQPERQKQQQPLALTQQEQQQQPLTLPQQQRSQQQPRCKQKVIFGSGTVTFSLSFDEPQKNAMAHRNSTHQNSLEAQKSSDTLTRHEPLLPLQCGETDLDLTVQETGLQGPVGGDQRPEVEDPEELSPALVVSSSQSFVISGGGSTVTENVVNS
Experimental: The activities of the compounds of the present invention on calcium receptors were measured in accordance with the method described hereinbelow.
Human Ca^2+ receptor cDNA was subcloned into the mammalian expression vector PECE as described in Ellis, L et al. (1986) Cell vol. 45, 721-732. The luciferase reporter was subcloned into the mammalian expression vector pGL3basic (Promega). Resistance to neomycin (pSV2-neo) and resistance to puromycin (pSG5-puro) were used as selection markers. All these plasmids were simultaneously transfected into CHO cells by calcium phosphate precipitation. Transfected cells were grown in F12 medium containing 7.5% foetal bovine serum, 100 U/ml penicillin and 100 μg/ml streptomycin (as 1% Pen-Strep, BioWithaker), neomycin (750 μg/ml) and puromycin (5 μg/ml). Neomycin and puromycin resistant colonies were subcloned and assayed for activation against a range of calcium concentration. Clone 8-5-5 was used to assess the effects of compounds on [Ca^2+]i. This stably transfected cell line was termed ET8-5-5.
For measurements of [Ca^2+]i, the cells were recovered from tissue culture flasks by brief treatment with Trypsin-EDTA (Invitrogen; containing 0.53 mM EDTA.4Na in HBSS) and then seeded in culture-treated 96-well plates (Greiner) at 50 k cells per well in the growth media (same as above, except neomycin 400 μg/ml). Cells were grown in 37° C. TC incubator for 24 h. The culture medium was then removed and replaced with F12 medium, 1% Pen-Strep for an overnight foetal bovine serum starvation in 37° C. TC incubator. Then the starvation medium was removed and replaced with a test buffer (20 mM HEPES pH 7.4, 125 mM NaCl, 5 mM KCl, 1 mM MgCl2, 5.5 mM Glucose, 2 g/l lysosyme and 0.3 mM CaCl2) supplemented with a range of test compound concentrations crossed against a super-added range of CaCl2 concentrations. The cells were incubated with the test compounds for 5 h in 37° C. TC incubator. Then the test buffer was discarded, and cells were added with the substrate for Luciferase from SteadyLite Kit (Perkin-Elmer). The luminescence was recorded.

[1] = molecular target: T2, human parathyroid cell Ca2+ receptor (hPCaR) (Homo sapiens, UniProt P41180); experiment: [Ca2+]i fluorescence assay in HEK 293 4.0-7 cells expressing hPCaR; assay type: cell-based; settings: buffer with 1 mM CaCl2
T2 construct: expressed in transfected cells
T2 sequence (P41180 20-1078): T1 sequence (P41180 20-1078)
Summary of the method: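 HEK 293 clone 4.0-7 stably expressing human parathyroid Ca2+ receptor, seeded overnight, then loaded 90 min at room temperature with calcium dye in parathyroid cell buffer (pH 7.45) with 0.5% BSA and 1 mM CaCl2. Fluorescence after compound addition read at ex 485/em 530 nm.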

- EC50 (Human Ca2+ receptor): 100 to 1000 nM
SMILES: COC(=O)c1ccccc1S(=O)(=O)NCCN(CCC(c1ccccc1)c1ccccc1)C(=O)Nc1nc2ccccc2s1 [Example 171, 2-{2-[3-Benzothiazol-2-yl-1-(3,3-diphenyl-propyl)-ureido]-ethylsulfamoyl}-benzoic acid methyl ester]

- EC50 [1]: 100 to 1000 nM
SMILES: NC(=O)CCN(CCC(c1ccccc1)c1ccccc1)C(=O)Nc1nc2ccccc2s1 [Example 109, 1-(3-amino-3-oxopropyl)-3-(benzo[d]thiazol-2-yl)-1-(3,3-diphenylpropyl)urea]

- EC50 [1]: 100 to 1000 nM
SMILES: CCOC(=O)CNCCN(CCC(c1ccccc1)c1ccccc1)C(=O)Nc1nc2ccccc2s1 [Example 151, {2-[3-Benzothiazol-2-yl-1-(3,3-diphenyl-propyl)-ureido]-ethylamino}-acetic acid ethyl ester]

- EC50 [1]: < 100 nM
SMILES: NC(=O)CCCN(CCC(c1ccccc1)c1ccccc1)C(=O)Nc1nc(-c2ccccc2)c(Cl)s1 [Example 81, 1-(4-amino-4-oxobutyl)-3-(5-chloro-4-phenylthiazol-2-yl)-1-(3,3-diphenylpropyl)urea]

- EC50 [1]: 100 to 1000 nM
SMILES: O=C(CCN(CCC(c1ccccc1)c1ccccc1)C(=O)Nc1nc2ccccc2s1)N1CCNCC1 [Example 106, 3-(benzo[d]thiazol-2-yl)-1-(3,3-diphenylpropyl)-1-(3-oxo-3-(piperazin-1-yl)propyl)urea]

Further lines, the compound ahead of its results:

SMILES: COc1ccc(S(=O)(=O)NCCN(CCC(c2ccccc2)c2ccccc2)C(=O)Nc2nc3ccccc3s2)cc1 [Example 172, N-{2-[3-Benzothiazol-2-yl-1-(3,3-diphenylpropyl)-ureido]-ethyl}-4-methoxybenzenesulfonamide]
- EC50 (Human Ca2+ receptor): 100 to 1000 nM

SMILES: CCOC(=O)CCCN(CCC(c1ccccc1)c1ccccc1)C(=O)Nc1cccc(C(=O)OC)c1 [Example 64, 3-[3-(3,3-diphenyl-propyl)-3-(3-ethoxycarbonyl-propyl)-ureido]-benzoic acid methyl ester]
- EC50 (Human Ca2+ receptor): < 100 nM

SMILES: O=C(O)CCCN(CCC(c1ccccc1)c1ccccc1)C(=O)Nc1cccc(C(=O)O)c1 [Example 65, 3-[3-(3-carboxy-propyl)-3-(3,3-diphenyl-propyl)-ureido]-benzoic acid]
- EC50 (Human Ca2+ receptor): 1000 to 10000 nM

SMILES: COC(=O)c1cccc(NC(=O)N(CCC(c2ccccc2)c2ccccc2)CC(=O)OC(C)(C)C)c1 [Example 63, 3-[3-tert-butoxycarbonylmethyl-3-(3,3-diphenyl-propyl)-ureido]-benzoic acid methyl ester]
- EC50 (Human Ca2+ receptor): 100 to 1000 nM

SMILES: O=C(Nc1nc2ccccc2s1)N(CCNS(=O)(=O)c1ccc(C(F)(F)F)cc1)CCC(c1ccccc1)c1ccccc1 [Example 173, N-{2-[3-Benzothiazol-2-yl-1-(3,3-diphenylpropyl)-ureido]-ethyl}-4-trifluoromethyl-benzenesulfonamide]
- EC50 (Human Ca2+ receptor): 100 to 1000 nM

SMILES: O=C(O)CN(CCC(c1ccccc1)c1ccccc1)C(=O)Nc1cccc(C(=O)O)c1 [Example 66, 3-[3-carboxymethyl-3-(3,3-diphenyl-propyl)-ureido]-benzoic acid]
- EC50 (Human Ca2+ receptor): 1000 to 10000 nM
